SMILES strings stand for the structures.

One test deals with T1, VCP/mtHtt interaction (Homo sapiens, UniProt P55072).
T1 construct: The full-length VCP wt and GFP-LC3B plasmids were obtained from Addgene; expressed in transfected cells; host or cells: HEK293
As to the kind of experiment: Co-immunoprecipitation of GFP-VCP and Myc-73Q FL (mtHtt) in HEK293 cells. It is filed as cell-based. To be noted: HEK293, Myc-73Q FL + GFP-VCP, 48 h. The protocol: (b) Stick drawings of VCP and Htt main domains. […] Immunoprecipitates were analysed by WB with the indicated antibodies. […] VCP mitochondrial levels were determined by WB. Loading control: VDAC. Data are mean±s.e.m. (g–i) ANOVA with Holm-Sidak post hoc test.
Myc-tagged full-length Htt with 23Q or 73Q plasmid was obtained from the CHDI foundation. The full-length VCP wt and GFP-LC3B plasmids were obtained from Addgene. To construct the mitochondria-targeting VCP plasmid, CMV-mito-GEM-GECO1 was digested with BamHI and HindIII, and VCP was PCR-amplified and inserted into the plasmid backbone. Site mutation of the VCP plasmid was performed using a site-mutagenesis kit (Agilent Technologies, Inc.). Cells were transfected with TransIT-2020 (Mirus Bio, LLC) following the manufacturer's protocol.
Human cervix carcinoma cells (HeLa cells) and HEK293 cells were maintained in DMEM supplemented with 10% FBS and 1% (v/v) penicillin/streptomycin.
Supplementary Figure 4: Rational design of a peptide inhibitor to block VCP/Htt interaction. […] Quantitation of VCP/Htt binding was shown below the blot as the m ean of three independent experiments. […] The blots of the bindings of mtHtt/VCP were quantitated with NIH Image J software. The IC50 was calculated. […]

The next test concerns R6/2 mice. As to the kind of experiment: PGC1-alpha protein level in mouse brain. It is filed as in vivo. The settings on record: R6/2 mouse brains (peer review file). An excerpt: Comment 2: Also how do the authors fit this in with the well-established defects in PGC1-alpha in HD. Do you have to have both?
Response: We thank the reviewer for these insightful comments. Following […]
mouse brains of R6/2 mice treated with either HV-3 or control peptide TAT.
Consistent with previous studies, we observed that PGC1-alpha was decreased in HD R6/2 mouse brains. To our surprise, treatment with HV-3 can partially […]
on the right). It is possible that this increase in PGC1-alpha level is an indirect effect of improvement of mitochondrial mass and quality by the HV-3 treatment.
Recent studies have shown that PGC1-alpha regulates mitophagy and autophagy via TFEB (Tsunemi T et al., Sci Trans Med, 2014; Siddiqui A et al., J Neurosci, 2015). Thus, our result may raise another possibility that there is a correlation between PGC1alpha and VCP-mediated mitophagy in HD. However, the mechanism remains to be determined, and it is beyond the scope of this manuscript. In response to the reviewer’s comment, we now add the following sentences in the discussion in the revised manuscript.
“In addition, PGC1α, a key regulator of mitochondrial biogenesis implicated in HD pathogenesis, has recently been reported to regulate mitophagy and autophagy through TFEB signaling 65, 66. […]

As for `CSCC[C@H](NC(=O)[C@@H](NC(=O)[C@H](CC(C)C)NC(=O)[C@@H](NC(=O)[C@H](Cc1c[nH]cn1)NC(=O)CCCCCNC(=O)[C@H](CCCNC(=N)N)NC(=O)[C@H](CCCNC(=N)N)NC(=O)[C@H](CCCNC(=N)N)NC(=O)[C@H](CCC(N)=O)NC(=O)[C@H](CCCNC(=N)N)NC(=O)[C@H](CCCNC(=N)N)NC(=O)[C@H](CCCCN)NC(=O)[C@H](CCCCN)NC(=O)[C@H](CCCNC(=N)N)NC(=O)CNC(=O)[C@@H](N)Cc1ccc(O)cc1)C(C)C)C(C)C)C(=O)N[C@@H](CS)C(=O)N[C@@H](C)C(=O)N[C@H](C(N)=O)[C@@H](C)O` [HV-3], on VCP/mtHtt interaction (0 to 4 µM, IP/WB quantitated, read-out: IC50 blocking VCP/mtHtt interaction), the IC50 worked out at 2110 nM. For the same compound, the “block of VCP/mtHtt interaction” value on VCP/mtHtt interaction (3 µM/day, n = 3) was “only HV-3 peptide significantly blocked the VCP/mtHtt interaction”. The PGC1-alpha protein level entry in the test with R6/2 mice was “improve the protein level of PGC1-alpha in the R6/2 mouse brains”.

The values are drawn from PMC5007466, “VCP recruitment to mitochondria causes mitophagy impairment and neurodegeneration in models of Huntington's disease” (Nature Communications, 2016).
